Data reported in patent US4778511A, “Fluorine-containing N-sulphenylated indazoles for use as bactericides and fungicides” (Bayer Aktiengesellschaft, priority 1985, dated 1988).
In brackets after ≈: the same amount, converted by molar mass.

Columns and labels:
[1] = tested on: Aspergillus niger; assay: MIC against fungi (agar), Aspergillus niger; format: cell-based; settings: 336 h, beer wort/peptone agar, 2 weeks at 28° C., 60 to 70% relative humidity
Experimental: (§1) Active compounds, according to the invention, are added in concentrations of 0.1 mg/l to 5000 mg/l, to an agar prepared from beer wort and peptone. The MIC is determined after the agar has been stored for 2 weeks at 28° C. and 60 to 70% relative atmospheric humidity. MlC is the lowest concentration of active compound at which the species of microbe used undergoes no growth at all; it is shown in the table below.

[2] = tested on: Chaelomium globosum; assay: MIC against fungi (agar), Chaetomium globosum; format: cell-based; settings: 336 h, beer wort/peptone agar, 2 weeks at 28° C., 60 to 70% relative humidity
Experimental: as §1

[3] = tested on: Penicillium glaucum; assay: MIC against fungi (agar), Penicillium glaucum; format: cell-based; settings: 336 h, beer wort/peptone agar, 2 weeks at 28° C., 60 to 70% relative humidity
Experimental: as §1

[4] = tested on: Allernaria tenuis; assay: MIC against fungi (agar), Alternaria tenuis; format: cell-based; settings: Alternaria alternata, 336 h, beer wort/peptone agar, 2 weeks at 28° C., 60 to 70% relative humidity
Experimental: as §1

[5] = tested on: Aureobasidium pullulans; assay: MIC against fungi (agar), Aureobasidium pullulans; format: cell-based; settings: 336 h, beer wort/peptone agar, 2 weeks at 28° C., 60 to 70% relative humidity
Experimental: as §1

[6] = tested on: Lentinus tigrinus; assay: MIC against fungi (agar), Lentinus tigrinus; format: cell-based; settings: 336 h, beer wort/peptone agar, 2 weeks at 28° C., 60 to 70% relative humidity
Experimental: as §1

[7] = tested on: Polyporus versicolor; assay: MIC against fungi (agar), Polyporus versicolor; format: cell-based; settings: Trametes versicolor, 336 h, beer wort/peptone agar, 2 weeks at 28° C., 60 to 70% relative humidity
Experimental: as §1

[8] = tested on: Sclerophoma pityophila; assay: MIC against fungi (agar), Sclerophoma pityophila; format: cell-based; settings: Sydowia polyspora, 336 h, beer wort/peptone agar, 2 weeks at 28° C., 60 to 70% relative humidity
Experimental: as §1

[9] = tested on: Trichoderma viride; assay: MIC against fungi (agar), Trichoderma viride; format: cell-based; settings: 336 h, beer wort/peptone agar, 2 weeks at 28° C., 60 to 70% relative humidity
Experimental: as §1

[10] = tested on: slime organisms; assay: Action against slime organisms (MIC); format: cell-based; settings: 504 h; slime organisms approx. 10^6 microbes/ml, Allen's nutrient solution with 1% caprolactam, room temperature, 3 weeks
Experimental: Substances according to the invention are used in concentrations of 0.1 to 100 mg/l in each case, dissolved in a little acetone, in Allen's nutrient solution (Arch. Mikrobiol. 17, 34 to 53 (1952)) containing 0.2 g of ammonium chloride, 4.0 g of sodium nitrate, 1.0 g of dipotassium hydrogenphosphate, 0.2 g of calcium chloride, 2.05 g of magnesium sulphate and 0.02 g of iron chloride, together with 1% of caprolactam, in 4 l of sterile water. Shortly beforehand, the nutrient solution is infested with slime organisms (approx. 10^6 microbes/ml), isolated from the spinning water circulation used in the production of polyamide.

[11] = tested on: Cladosporium; assay: MIC against fungi (agar), Cladosporium; format: cell-based; settings: 336 h, beer wort/peptone agar, 2 weeks at 28° C., 60 to 70% relative humidity
Experimental: as §1

[12] = tested on: Drechslera graminea (syn. Helminthosporium gramineum); assay: Drechslera graminea test (barley)/seed treatment; format: in vivo; settings: application rate 500 mg/kg of seed, approx. 3 weeks after sowing, undressed 23.4
Experimental: Drechslera graminea test (barley)/seed treatment (syn. Helminthosporium gramineum)
The active compounds are applied in the form of dry dressing agents. They are formulated by diluting the particular active compound with ground minerals to give a finely powdered mixture, which ensures uniform distribution on the surface of the seed.
The infested seed is dressed by shaking it for 3 minutes with the dressing agent in a closed glass jar.
Embedded in sieved, moist standard soil, the seed is exposed to a temperature of 4° C. for 10 days in closed Petri dishes in a refrigerator. This initiates the germination of the barley sand, if appropriate, also that of the fungus spores. The pre-germinated barley is then sown in 2 lots of 50 grains 3 cm deep in standard soil and is cultivated in seed boxes which are exposed to light for 15 hours a day in a greenhouse at a temperature of approx. 18° C.
The plants are evaluated for symptoms of stripe disease approx. 3 weeks after sowing.

SMILES	MIC [1] [µg/mL]	MIC [2] [µg/mL]	MIC [3] [µg/mL]	MIC [4] [µg/mL]	MIC [5] [µg/mL]	MIC [6] [µg/mL]	MIC [7] [µg/mL]	MIC [8] [µg/mL]	MIC [9] [µg/mL]	MIC [10] [µg/mL]	MIC [11] [µg/mL]	Diseased plants as % of all the emerged plants [12] [%]
FC(F)(F)Sc1ccc2cnn(SC(F)(Cl)Cl)c2c1 [Example 16]	< 20	< 20	< 20									
Cc1cc2cnn(SC(F)(Cl)Cl)c2c(C)c1C(F)(F)F [Example 15]	50 (≈ 144 µM)	< 20	< 20									
FC(F)(F)Oc1ccc2c(cnn2SC(F)(Cl)Cl)c1 [Example 5]	20 (≈ 59.7 µM)	20 (≈ 59.7 µM)	20 (≈ 59.7 µM)	20 (≈ 59.7 µM)	20 (≈ 59.7 µM)	0.1 (≈ 0.298 µM)	2 (≈ 5.97 µM)	0.75 (≈ 2.24 µM)	50 (≈ 149 µM)	5 to 10 (≈ 14.9 to 29.8 µM)		
FC(Cl)(Cl)Sn1ncc2c(Cl)c(Cl)c(C(F)(F)F)cc21 [Example 17]	500 (≈ 1290 µM)	< 20	< 20									
FC(F)(F)Oc1ccc2cnn(SC(F)(Cl)Cl)c2c1 [Example 2, 6-Trifluoromethoxy-1-dichlorofluoromethylsulphenylindazole]	20 (≈ 59.7 µM)	2 (≈ 5.97 µM)	2 (≈ 5.97 µM)	75 (≈ 224 µM)	150 (≈ 448 µM)	20 (≈ 59.7 µM)		35 (≈ 104 µM)			20 (≈ 59.7 µM)	4.1
FC(F)(F)Oc1ccc2cnn(SC(Cl)(Cl)Cl)c2c1 [Example 1, 6-Trifluoromethoxy-1-trichloromethylsulphenylindazole]	20 (≈ 56.9 µM)	75 (≈ 213 µM)	20 (≈ 56.9 µM)	150 (≈ 427 µM)	350 (≈ 996 µM)	75 (≈ 213 µM)		75 (≈ 213 µM)			20 (≈ 56.9 µM)	
Fc1cccc2c1cnn2SC(F)(Cl)Cl [1-Dichlorofluoromethylsulphenyl-4-fluoroindazole, reference compound]	500 (≈ 1860 µM)	200 (≈ 743 µM)	200 (≈ 743 µM)									

The next lines start with results.

MIC [1] [µg/mL]	MIC [2] [µg/mL]	MIC [3] [µg/mL]	MIC [4] [µg/mL]	MIC [5] [µg/mL]	MIC [6] [µg/mL]	MIC [7] [µg/mL]	MIC [8] [µg/mL]	MIC [9] [µg/mL]	MIC [10] [µg/mL]	MIC [11] [µg/mL]	SMILES	Diseased plants as % of all the emerged plants [12] [%]
500 (≈ 1360 µM)	< 20	< 20									Cc1cc(C(F)(F)F)c2cnn(SC(F)(Cl)Cl)c2c1Cl [Example 8]	
10 (≈ 35.3 µM)	10 (≈ 35.3 µM)	20 (≈ 70.6 µM)	15 (≈ 53 µM)	50 (≈ 177 µM)	0.5 (≈ 1.77 µM)		15 (≈ 53 µM)	500 (≈ 1770 µM)		5 (≈ 17.7 µM)	Cc1cc(F)cc2c1cnn2SC(F)(Cl)Cl [Example 19]	
< 20	< 20	< 20									FC(F)(F)Sc1ccc2c(cnn2SC(F)(Cl)Cl)c1 [Example 18]	
50 (≈ 135 µM)	20 (≈ 54.1 µM)	20 (≈ 54.1 µM)	200 (≈ 541 µM)	500 (≈ 1350 µM)	7.5 (≈ 20.3 µM)		200 (≈ 541 µM)			20 (≈ 54.1 µM)	FC(F)(F)Oc1ccc2c(cnn2SC(F)(Cl)Cl)c1Cl [Example 12]	
150 (≈ 413 µM)	100 (≈ 275 µM)	100 (≈ 275 µM)									FC1Oc2cc3c(cnn3SC(F)(Cl)Cl)cc2OC1(F)F (centres unmarked) [Example 4]	
